The source of these data is patent US20080227829A1, “Neurogenic compounds” (priority 2007, published 2008).

Entries after “also recorded” stand apart in the source; their conditions may differ.

For experiment [1], the system named is dentate gyrus. As to the kind of experiment: 10-day oral (food) and i.p. study, BrdU/DAB quantification of dividing cells. Type of experiment: in vivo, mice. The conditions noted are these: 10 days; i.p. injection (apigenin 25 mg/kg, epicatechin 20 mg/kg) or food 250 ppm and 500 ppm; vs controls. On the procedure: A 10-day food study was conducted in which the effects of oral administration of apigenin were compared with apigenin effects upon injection. Food pellets containing epicatechin were tested alongside apigenin. Animals were fed food containing apigenin, epicatechin or control pellets in two doses: 250 ppm and 500 ppm. Aliquots of apigenin and epicatechin were dissolved in [10:90] Tween 80: 0.9% NaCl. Aliquots of Tween 80: 0.9% NaCl were used as controls. Forty mice (age seven weeks) were divided into three test injection groups (n=five per group) and five test food groups (n=five per group) and received: Test injections were administered i.p. for ten days total. Test food was distributed on Day 1 and mice were allowed to eat freely for the duration of the ten days. Daily i.p. injections of BrdU [10 mg/ml] were administered to all animals the first eight days of this study at a dose of 50 mg/kg. At the end of ten days, all mice were perfused using 4% paraformaldehyde and their brain tissue was extracted. Brain tissue was sectioned and stained for BrdU/DAB quantification for dividing cells.

Experiment [2] has as its system mice. The experiment can be described thus: Object recognition, visual paired comparison task (VPC). Type of experiment: in vivo. As to the method:
Each mouse receiving either apigenin 25 mg/kg or Tween 80:0.9% NaCl (control) solutions was administered an i.p. injection of either drug or control for 7 days, after which they were trained and tested on visual paired comparison task (VPC) behavioral assay. The paradigm consisted of habituation to the experimental room for two hours prior to the experiment on Days 1 and 2. After habituation on Day 1, mice were given a five minute exposure to the testing chamber, followed by a thirty second exploration of two identical objects (familiarization training). Twenty-four hours after the familiarization training, mice were once again re-habituated to the room and testing chamber for two hours and one minute, respectively. After re-habituation mice were placed back into the testing chamber and allowed to explore a familiar and novel object for five minutes. Object exploration times were measured for both familiar and novel objects on Days 1 and 2. Both objects were identical, but the “novel” object was in a different location.

Experiment [3] relates to mice. As to the kind of experiment: Morris water maze (acquisition training and probe trial), long-term injection study. Type of experiment: in vivo. On the procedure:
A six-week study was conducted in which apigenin was administered by injection to mice at two different doses in conjunction with or without daily voluntary exercise (running). Behavioral testing was administered after 30 days of injections using the Morris water maze and object recognition test. Apigenin was dissolved in [10:90] Tween 80: 0.9% NaCl. All compounds were purchased from commercial sources. Aliquots of Tween 80: 0.9% NaCl solutions were used for testing in the in vivo model. Sixty-four mice (age seven wks) were divided into four test groups (sixteen per group) and received either: Injections were administered intraperitoneally (i.p.) for forty-two days total. In addition to test injections, daily i.p. injections of 5-bromo-2-deoxyuridine (BrdU) [10 mg/ml] were administered for the first eight days at a dose of 50 mg/kg. Within each test group, eight mice were randomly selected to receive running exercise. These thirty-two mice (eight mice per injection group) were transferred daily (on Days 1-40 of the study) from their normal static housing to an automated voluntary running wheel cage for two hours a day. Non-running mice remained in their static cages throughout the study. On Day 31, all mice began acquisition training on the Morris water maze immediately following their i.p. injection. See, e.g., Morris, Developments of a water-maze procedure for studying spatial learning in the rat, J. Neurosci. Methods, 11(1) (1984), hereby incorporated herein by reference. Mice were trained for nine consecutive days, receiving two trials a day using a hidden platform paradigm. The platform was located in the northwest (NW) quadrant of the water maze. To measure the effect of apigenin (with or without exercise) on learning, latency to platform was recorded for each trial. After daily training on the water maze, non-running mice were returned to their normal static housing while running mice were placed into their running wheel cages for two hours. On Day 9 of the water maze training, the mice received a probe trial 4 hours after the last training. During the probe trial the platform was removed and retention of memory of the target NW quadrant was recorded.

Experiment [4] has as its system dentate gyrus. The experiment can be described thus: BrdU/NeuN/GFAP phenotyping of newly dividing cells (neurogenesis) in the dentate gyrus. It counts as in vivo, mice. The conditions noted are these: for number of BrdU+ cells co-labeled with NeuN (new neurons) in the dentate gyrus: 25 mg/kg i.p. 42 days, runners, vs all other groups, p<0.001. The text has this: After the long-term study of Example 1 and all behavioral testing was concluded (Day 42), mice were perfused using 4% paraformaldehyde and their brain tissue was extracted. Brain tissue was sectioned and stained for BrdU/DAB quantification of dividing cells. A second immunofluorescence stain was used for phenotyping of the newly dividing cells. Brain sections were also taken and stained with Brdu/NeuN/GFAP. Phenotype analysis was completed to determine the percentage of dividing cells co-labeled with NeuN, a marker used to identify mature neurons. Using the percentage, it was possible to calculate the total number of BrdU/NeuN co-labeled cells in the dentate gyrus.

Take `O=c1cc(-c2ccc(O)cc2)oc2cc(O)cc(O)c12` [apigenin]: the “number of dividing cells (BrdU+) in the dentate gyrus” value in experiment [1] is on record as “significant increase in the number of dividing cells; also recorded: increased BrdU labeling”. The “difference between injection groups during novel testing” value in experiment [2] (25 mg/kg i.p. for 7 days vs Tween 80:0.9% NaCl control) is on record as “No significant differences”. The “preference for the novel object (object exploration time)” value in experiment [2] (25 mg/kg i.p. for 7 days, T-test t=0.0008) is reported as “significant preference for the novel object”. The “probe trial: frequency into target quadrant” value in experiment [3] (12.5 mg/kg i.p., non-runners, p<0.06) is “trend toward significance”; in experiment [3] (12.5 mg/kg i.p., runners, p<0.001), “significant preference for the target quadrant”; in experiment [3] (25 mg/kg i.p., non-runners, p<0.05), “significant preference for the target quadrant”; in experiment [3] (25 mg/kg i.p., runners, p<0.06), “strong preference for entering the target quadrant more frequently than other quadrants, although this is not statistically significant”. For the same compound, the “latency to platform (acquisition phase)” value in experiment [3] (12.5 mg/kg i.p., non-runners, vs control) was “No significant differences”; in experiment [3] (12.5 mg/kg i.p., runners, vs control runners and control non-runners, p<0.05) it was “significantly shorter latencies”; in experiment [3] (25 mg/kg i.p., non-runners, vs control runners, p<0.05), “significantly different from the control runners”; in experiment [3] (25 mg/kg i.p., runners, vs control runners and control non-runners, p<0.05), “significantly shorter latencies”. In addition, the “probe trial: total duration of time spent in the quadrants” value in experiment [3] (12.5 and 25 mg/kg i.p., runners and non-runners) was “no significant differences among the groups”. Moreover, the “probe trial: frequency in quadrants (FIG. 1 legend)” value in experiment [3] (apigenin treated mice, runners and non-runners) was “entered the target quadrant more frequently than all other quadrants”. Further, in experiment [3] (with or without exercise), the “learning (summary of water maze)” value is “increases learning with or without exercise”. Moreover, the “number of BrdU+ cells co-labeled with NeuN (new neurons) in the dentate gyrus” value in experiment [4] is on record as “significantly higher number of new neurons than all other mice in the study”; in experiment [4] (listed as Apigenin) it was “significantly more new neurons than all other groups; also recorded: greatest increase in neurogenesis”. The “differentiation of the dividing cells into neurons” value in experiment [4] (overall statement) is given as “increases”.
